Laboratory results published in ChEMBL document CHEMBL1201862, “PubChem BioAssay data set” (2004).
Activity calls are given as the source filed them.

Key:
Cannabinoid receptor 2 [1] = target: T1, Cannabinoid receptor 2 (Homo sapiens, UniProt P34972); assay: SAR analysis of antagonists of the Cannabinoid Receptor 2 using an Image-Based Assay - Set 3. [Related pubchem assays (depositor defined):AID2013, AID2026]; assay type: functional
Cannabinoid receptor 1 [2] = target: T2, Cannabinoid receptor 1 (Homo sapiens, UniProt P21554); assay: SAR analysis of antagonists of the Cannabinoid Receptor 1 using an Image-Based Assay - Set 4. [Related pubchem assays (depositor defined):AID2013, AID2026]; assay type: functional
[3] = target: T3, G-protein coupled receptor 35 (Homo sapiens, UniProt Q9HC97); assay: SAR analysis of Antagonists of the GPR35 Receptor using an Image-Based Assay - Set 6. [Related pubchem assays (depositor defined):AID2013, AID2026]; assay type: functional
Cannabinoid receptor 2 [4] = target: T1, Cannabinoid receptor 2; assay: SAR analysis of agonists of the Cannabinoid Receptor 2 using an Image-Based Assay - Set 3. [Related pubchem assays (depositor defined):AID2013, AID2026]; assay type: functional
Cannabinoid receptor 1 [5] = target: T2, Cannabinoid receptor 1; assay: SAR analysis of agonists of the Cannabinoid Receptor 1 using an Image-Based Assay - Set 4. [Related pubchem assays (depositor defined):AID2013, AID2026]; assay type: functional
[6] = target: T3, G-protein coupled receptor 35; assay: SAR analysis of Agonists of the GPR35 Receptor using an Image-Based Assay - Set 4. [Related pubchem assays (depositor defined):AID2013, AID2026]; assay type: functional
[7] = target: G-protein coupled receptor 55 (Homo sapiens, UniProt Q9Y2T6); assay: SAR Analysis of Selective Antagonists of GPR55 using an Image-Based Assay - Set 4. [Related pubchem assays (depositor defined):AID2013, AID2026]; assay type: functional;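 note: antagonism of response to 5 µM lysophosphatidylinositol agonist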
SUMO-activating enzyme [8] = target: T4, SUMO-activating enzyme (Homo sapiens, UniProt Q9UBT2); assay: blockers of UBC9-mediated SUMO conjugation – biochemical, AlphaScreen, SUMOylation inhibitor project, confirmation (AID 2018); assay type: functional
SUMO-activating enzyme [9] = target: T4, SUMO-activating enzyme; assay: blockers of SAE1/SAE2–UBC9 SUMO transfer – biochemical, HTRF, uHTS, primary screen (AID 2006); assay type: protein-complex assay
[10] = target: Intestinal-type alkaline phosphatase (Homo sapiens, UniProt P09923); assay: human intestinal alkaline phosphatase activators, dose response, biochemical, luminescence, uHTS hits (AID 463120); assay type: functional
Sequence of Intestinal-type alkaline phosphatase (P09923 whole entry): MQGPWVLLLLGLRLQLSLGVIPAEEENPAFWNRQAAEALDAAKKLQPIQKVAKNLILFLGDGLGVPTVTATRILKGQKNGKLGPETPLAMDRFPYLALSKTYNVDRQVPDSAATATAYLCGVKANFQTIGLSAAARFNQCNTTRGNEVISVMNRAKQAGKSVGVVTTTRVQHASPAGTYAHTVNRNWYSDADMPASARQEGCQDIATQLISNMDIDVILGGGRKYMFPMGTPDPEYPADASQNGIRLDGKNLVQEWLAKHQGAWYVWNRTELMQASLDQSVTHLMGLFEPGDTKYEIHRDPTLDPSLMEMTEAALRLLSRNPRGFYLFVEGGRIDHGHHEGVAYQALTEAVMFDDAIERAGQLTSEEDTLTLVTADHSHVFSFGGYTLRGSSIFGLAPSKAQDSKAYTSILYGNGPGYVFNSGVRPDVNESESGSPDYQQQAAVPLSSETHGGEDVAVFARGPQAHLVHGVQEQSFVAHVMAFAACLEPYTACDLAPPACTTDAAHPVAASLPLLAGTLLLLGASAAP

T3 sequence (Q9HC97 whole entry): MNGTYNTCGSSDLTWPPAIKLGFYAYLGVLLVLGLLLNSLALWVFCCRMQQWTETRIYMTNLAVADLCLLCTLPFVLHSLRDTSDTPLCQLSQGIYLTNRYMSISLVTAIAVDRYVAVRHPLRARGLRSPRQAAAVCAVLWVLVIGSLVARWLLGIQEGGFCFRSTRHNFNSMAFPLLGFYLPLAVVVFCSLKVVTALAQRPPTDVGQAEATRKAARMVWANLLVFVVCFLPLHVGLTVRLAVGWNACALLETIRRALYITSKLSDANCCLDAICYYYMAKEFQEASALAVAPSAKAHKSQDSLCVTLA
T2 sequence (P21554 whole entry): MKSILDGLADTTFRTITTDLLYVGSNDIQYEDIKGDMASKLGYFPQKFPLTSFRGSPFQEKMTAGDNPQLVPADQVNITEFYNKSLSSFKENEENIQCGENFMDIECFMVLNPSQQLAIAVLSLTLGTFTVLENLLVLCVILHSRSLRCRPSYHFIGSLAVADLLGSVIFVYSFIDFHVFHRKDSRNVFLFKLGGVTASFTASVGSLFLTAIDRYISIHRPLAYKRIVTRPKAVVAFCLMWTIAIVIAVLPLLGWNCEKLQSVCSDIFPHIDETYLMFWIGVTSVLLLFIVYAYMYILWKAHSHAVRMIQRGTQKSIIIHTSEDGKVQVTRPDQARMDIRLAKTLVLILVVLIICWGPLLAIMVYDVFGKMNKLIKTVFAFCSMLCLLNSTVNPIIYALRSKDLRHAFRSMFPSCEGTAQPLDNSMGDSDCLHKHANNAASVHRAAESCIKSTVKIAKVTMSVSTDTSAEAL
T4 sequence (Q9UBE0 whole entry): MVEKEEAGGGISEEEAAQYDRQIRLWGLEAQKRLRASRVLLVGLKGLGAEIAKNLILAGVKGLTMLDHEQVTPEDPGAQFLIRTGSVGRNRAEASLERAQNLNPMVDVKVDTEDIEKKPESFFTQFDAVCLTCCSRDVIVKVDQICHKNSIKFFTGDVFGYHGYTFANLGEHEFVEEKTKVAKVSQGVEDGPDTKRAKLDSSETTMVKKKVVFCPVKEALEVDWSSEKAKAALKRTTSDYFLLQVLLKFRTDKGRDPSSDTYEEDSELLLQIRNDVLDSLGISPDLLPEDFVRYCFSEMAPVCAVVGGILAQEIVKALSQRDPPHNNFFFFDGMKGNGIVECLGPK
T4 sequence (Q9UBT2 whole entry): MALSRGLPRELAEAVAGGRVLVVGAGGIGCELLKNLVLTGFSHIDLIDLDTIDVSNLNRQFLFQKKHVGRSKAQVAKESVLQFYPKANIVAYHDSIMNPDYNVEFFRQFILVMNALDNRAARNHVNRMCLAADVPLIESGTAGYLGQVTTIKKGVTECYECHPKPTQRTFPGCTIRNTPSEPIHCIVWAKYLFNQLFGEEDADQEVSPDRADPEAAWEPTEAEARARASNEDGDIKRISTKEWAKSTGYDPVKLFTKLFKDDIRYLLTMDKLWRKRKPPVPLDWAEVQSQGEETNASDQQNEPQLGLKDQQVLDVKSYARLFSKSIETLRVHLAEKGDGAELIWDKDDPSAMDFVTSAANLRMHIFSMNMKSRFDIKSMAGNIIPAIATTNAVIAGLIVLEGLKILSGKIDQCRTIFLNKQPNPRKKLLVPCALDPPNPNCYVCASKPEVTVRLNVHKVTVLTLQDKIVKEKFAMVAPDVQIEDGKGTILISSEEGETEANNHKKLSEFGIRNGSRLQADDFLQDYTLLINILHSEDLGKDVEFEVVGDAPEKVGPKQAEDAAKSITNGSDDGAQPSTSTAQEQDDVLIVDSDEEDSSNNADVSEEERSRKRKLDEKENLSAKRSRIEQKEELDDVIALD
T1 sequence (P34972 whole entry): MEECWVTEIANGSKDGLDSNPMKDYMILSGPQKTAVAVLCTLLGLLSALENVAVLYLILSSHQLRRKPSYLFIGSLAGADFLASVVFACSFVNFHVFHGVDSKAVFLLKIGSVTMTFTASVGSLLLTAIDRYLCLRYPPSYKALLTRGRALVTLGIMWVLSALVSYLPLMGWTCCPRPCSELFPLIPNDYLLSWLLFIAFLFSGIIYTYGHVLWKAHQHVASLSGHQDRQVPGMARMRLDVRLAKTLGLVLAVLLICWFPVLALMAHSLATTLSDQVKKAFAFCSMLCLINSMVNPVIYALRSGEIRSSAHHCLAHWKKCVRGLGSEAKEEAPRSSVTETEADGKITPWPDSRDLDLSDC
Sequence of G-protein coupled receptor 55 (Q9Y2T6 whole entry): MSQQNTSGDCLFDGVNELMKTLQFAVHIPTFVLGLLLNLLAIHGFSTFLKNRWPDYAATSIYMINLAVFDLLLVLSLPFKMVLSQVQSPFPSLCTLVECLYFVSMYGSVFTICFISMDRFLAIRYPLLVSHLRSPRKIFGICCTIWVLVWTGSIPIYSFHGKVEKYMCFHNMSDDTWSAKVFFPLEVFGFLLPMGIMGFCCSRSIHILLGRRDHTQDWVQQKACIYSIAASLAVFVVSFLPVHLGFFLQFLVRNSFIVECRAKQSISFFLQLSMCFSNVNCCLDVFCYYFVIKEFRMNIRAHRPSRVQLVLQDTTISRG

Row | Structure (SMILES) | IC50 (Cannabinoid receptor 2 [1]) | IC50 (Cannabinoid receptor 1 [2]) | IC50 [3] | EC50 (Cannabinoid receptor 2 [4]) | EC50 (Cannabinoid receptor 1 [5]) | EC50 [6] | IC50 [7] | IC50 (SUMO-activating enzyme [8]) | IC50 (SUMO-activating enzyme [9]) | EC50 [10]
1 | CCOc1ccc(-c2n[nH]c(C)c2-c2ccc(OC)cc2)c(O)c1 | 3.79 µM (active) | 0.85 µM (active) | > 32 µM (inactive) | 31.6 µM (inactive) | > 32 µM (inactive) | 25.5 µM (inactive) | 15.6 µM (inactive) |  |  | 
2 | Cc1ccc(C(C)C(=O)N2CCC(n3nc(-c4ccccc4)oc3=O)CC2)cc1 (centres undefined) | 22.9 µM (inactive) | 3.31 µM (active) | > 32 µM (inactive) | > 32 µM (inactive) | > 32 µM (inactive) | > 32 µM (inactive) | 7.6 µM (active) |  |  | 
3 | O=C(/C=C/c1ccco1)NC(=S)Nc1ccc(O)c(-c2nc3ccccc3s2)c1 |  |  |  |  |  |  |  | 12.1 µM (active) | 18 µM (active) | 
4 | Sc1nnc(-c2ccncc2)n1/N=C/c1cn(-c2ccccc2)nc1-c1ccc(Cl)cc1 |  |  |  |  |  |  |  | 3.28 µM (active) | 28.8 µM (active) | 
5 | CC(C)CCNc1ncnc2c1nnn2Cc1ccccc1Cl |  |  |  |  |  |  |  |  |  | > 100 µM (inactive)
